The values that follow come from ChEMBL document CHEMBL5380810, “Scaffold Hybrid of the Natural Product Tanshinone I with Piperidine for the Discovery of a Potent NLRP3 Inflammasome Inhibitor” (J Med Chem, 2023).

Data set [1] has as its system Peritoneal macrophage. Briefly: Antiinflammatory activity against LPS-stimulated mouse peritoneal macrophage assessed as IL-1beta level at 2 uM treated for 3 hrs followed by ATP addition measured after 30 mins by ELISA method relative to control. It is filed as functional. The note with it: time 3.5 hrs.
Data set [2] concerns Peritoneal macrophage. Briefly: Antiinflammatory activity against LPS-stimulated mouse peritoneal macrophage assessed as TNF-alpha level at 2 uM treated for 3 hrs followed by ATP addition measured after 30 mins by ELISA method. It is filed as functional, cell-based. The following applies: time 3.5 hrs. For orientation: An ELISA detects its analyte on a solid surface through an enzyme-linked reagent.

For data set [3], the system named is Peritoneal macrophage. Description: Antiinflammatory activity against LPS-stimulated mouse peritoneal macrophage assessed as IL-6 level at 2 uM treated for 3 hrs followed by ATP addition measured after 30 mins by ELISA method. In kind it is functional, cell-based. The following applies: time 3.5 hrs.
For data set [4], the system named is Peritoneal macrophage. Briefly: Cytotoxicity against mouse peritoneal macrophages at 4 uM incubated for 3.5 hrs by MTT assay. It is filed as toxicity, cell-based.
Data set [5] relates to Peritoneal macrophage. Briefly: Antiinflammatory activity against LPS-stimulated mouse peritoneal macrophage assessed as inhibition of IL-1beta secretion treated for 3 hrs followed by ATP addition measured after 30 mins by ELISA method. In kind it is functional, cell-based.
In data set [6] the test system is Peritoneal macrophage. Description: Antiinflammatory activity against LPS-stimulated mouse peritoneal macrophage assessed as TNF-alpha level at 2 uM treated for 3 hrs followed by ATP addition measured after 30 mins by ELISA method relative to control. The note with it: time 3.5 hrs. In kind it is functional.
Data set [7] in a line: Metabolic stability in mouse liver microsomes assessed as half life at 20 uM measured upto 120 mins in presence of NADPH by LC-MS/MS analysis. In kind it is ADME, Microsome. In general terms: Liver microsomes are vesicles of endoplasmic reticulum, rich in cytochrome P450 enzymes.
The nature of data set [8]: Metabolic stability in human liver microsomes assessed as intrinsic clearance at 20 uM measured upto 120 mins in presence of NADPH by LC-MS/MS analysis. In kind it is ADME, Microsome. The following applies: read-out: CLH.
A short description of data set [9]: Metabolic stability in mouse liver microsomes assessed as intrinsic clearance at 20 uM measured upto 120 mins in presence of NADPH by LC-MS/MS analysis. In kind it is ADME, Microsome. The note with it: read-out: CLH.
Data set [10] has as its system Peritoneal macrophage. Briefly: Antiinflammatory activity against LPS-stimulated mouse peritoneal macrophage assessed as IL-6 level at 2 uM treated for 3 hrs followed by ATP addition measured after 30 mins by ELISA method relative to control. In kind it is functional. The note with it: time 3.5 hrs.
Data set [11] in a line: Metabolic stability in human liver microsomes assessed as half life at 20 uM measured upto 120 mins in presence of NADPH by LC-MS/MS analysis. It is filed as ADME, Microsome.
Data set [12] can be described thus: Aqueous solubility of compound incubated for 24 hrs by HPLC analysis. In kind it is physicochemical. The note with it: buffer.

SMILES strings stand for the structures. ≈ marks a conversion by molar mass, not a printed value. Calls of active or inactive are those of the source. The rule behind the calls is not given here.

Regarding `CCN1CCc2c(oc3c2C(=O)C(=O)c2c-3ccc3c(C)cccc23)C1`, the Activity with Peritoneal macrophage [1] is listed as 67%; with Peritoneal macrophage [4], “Non-Toxic”. The outcome in the data set on Peritoneal macrophage [2] and in the data set with Peritoneal macrophage [3] was inactive.
Take `Cc1cccc2c3c(ccc12)-c1oc2c(c1C(=O)C3=O)CCN(CCN1CCCCC1)C2`: the Activity is 41% in the data set on Peritoneal macrophage [1] and “Non-Toxic” with Peritoneal macrophage [4]. Moreover, the result with Peritoneal macrophage [2] and with Peritoneal macrophage [3] was inactive.
As to `Cc1cccc2c3c(ccc12)-c1oc2c(c1C(=O)C3=O)CCN([C@@H](C)C(=O)N1CCN(C)CC1)C2`, the Activity with Peritoneal macrophage [1] was 97%; in the data set on Peritoneal macrophage [4], “Non-Toxic”; in the data set on Peritoneal macrophage [6] it was 33%. Moreover, in the data set on Peritoneal macrophage [5], the IC50 (commonly the midpoint of a concentration-inhibition curve) was 383 nM. Also, the result with Peritoneal macrophage [3] was inactive.
As for `Cc1cccc2c3c(ccc12)-c1oc2c(c1C(=O)C3=O)CCN([C@H](CO)CCCO)C2`, the Activity with Peritoneal macrophage [1] is reported as 99%; in the data set on Peritoneal macrophage [10], 10%; with Peritoneal macrophage [4], “Non-Toxic”; in the data set on Peritoneal macrophage [6] it was 41%. Besides, the half-life (in general, the time in which the quantity being followed falls by half) at 20 µM in data set [7] came to 6.08 h; in [11], 3.73 h. In the data set on Peritoneal macrophage [5], the IC50 was 65 nM. The figures for the microsomal CLint at 20 µM in data set [8] and in data set [9] were 6.2 µL/min/mg and 3.8 µL/min/mg, respectively. Further, the solubility (commonly the dissolved amount per volume that the medium holds) in data set [12] turned out to be 0.45 µg/mL (≈ 1.07 µM).
For the molecule `Cc1cccc2c3c(ccc12)-c1oc2c(c1C(=O)C3=O)CCN([C@H](CO)CCCO)C2.Cl`, the Activity in the data set with Peritoneal macrophage [1] is on record as 96%; in the data set on Peritoneal macrophage [10] it was 6%; in the data set with Peritoneal macrophage [4], “Non-Toxic”; in the data set on Peritoneal macrophage [6], 16%. Also, the solubility in data set [12] stood at 6.34 µg/mL.
Take `Cc1cccc2c3c(ccc12)-c1oc2c(c1C(=O)C3=O)CCN(CCO)C2`: the Activity was 96% with Peritoneal macrophage [1], 7% in the data set with Peritoneal macrophage [10], “Non-Toxic” in the data set on Peritoneal macrophage [4] and 40% with Peritoneal macrophage [6]. The half-life at 20 µM in data set [7] was 3.03 h; in [11] it was 11.6 h. Besides, the IC50 in the data set with Peritoneal macrophage [5] came to 114 nM. Besides, the microsomal CLint at 20 µM in data set [8] is 2 µL/min/mg; in data set [9], 7.64 µL/min/mg. In addition, the solubility in data set [12] came to 0.34 µg/mL (≈ 0.941 µM).
For the molecule `Cc1cccc2c3c(ccc12)-c1oc2c(c1C(=O)C3=O)CCN(CCCN1CCOCC1)C2.Cl`, the Activity is recorded as 91% in the data set on Peritoneal macrophage [1], 12% with Peritoneal macrophage [10], “Non-Toxic” in the data set with Peritoneal macrophage [4] and 24% in the data set on Peritoneal macrophage [6]. Further, in [12], the solubility was 11.89 µg/mL.
As for `Cc1cccc2c3c(ccc12)-c1oc2c(c1C(=O)C3=O)CCN(CCN1CCCC1)C2`, the figures for the Activity in the data set with Peritoneal macrophage [1] and with Peritoneal macrophage [4] were 73% and “Non-Toxic”, respectively. In addition, the outcome in the data set with Peritoneal macrophage [2] and in the data set with Peritoneal macrophage [3] was inactive.
Regarding `Cc1cccc2c3c(ccc12)-c1oc2c(c1C(=O)C3=O)CCN(CC(=O)N1CCOCC1)C2`, the Activity with Peritoneal macrophage [1] is listed as 96%; with Peritoneal macrophage [10] it was 24%; in the data set on Peritoneal macrophage [4], “Non-Toxic”; in the data set on Peritoneal macrophage [6], 36%. In addition, the IC50 in the data set on Peritoneal macrophage [5] is 368 nM.
Consider `Cc1coc2c1C(=O)C(=O)c1c-2ccc2c(C)cccc12` [TANSHINONE I], for which the Activity is on record as 69% in the data set on Peritoneal macrophage [1], “Non-Toxic” in the data set on Peritoneal macrophage [4] and 55% in the data set with Peritoneal macrophage [6]. Also, the half-life at 20 µM in data set [7] turned out to be 0.352 h; in [11] it was 0.0795 h. The microsomal CLint at 20 µM in [8] was 290 µL/min/mg; in data set [9], 65.6 µL/min/mg. Also, in the data set on Peritoneal macrophage [3], the outcome was inactive.
`Cc1cccc2c3c(ccc12)-c1oc2c(c1C(=O)C3=O)CCN(CCN1CCOCC1)C2`: the Activity in the data set with Peritoneal macrophage [1] is listed as 99%; in the data set with Peritoneal macrophage [4], “Non-Toxic”; in the data set on Peritoneal macrophage [6] it was 26%. The IC50 in the data set with Peritoneal macrophage [5] stood at 273 nM. For the same molecule, the result with Peritoneal macrophage [3] was inactive.
With `Cc1cccc2c3c(ccc12)-c1oc2c(c1C(=O)C3=O)CCN(CCO)C2.Cl`, the results for the Activity with Peritoneal macrophage [1], in the data set on Peritoneal macrophage [4] and in the data set with Peritoneal macrophage [6] were 99%, “Non-Toxic” and 22%, respectively. Moreover, the solubility in [12] stood at 2.45 µg/mL.
